According to patent US9718819B2 (Merck Sharp & Dohme Corp., priority 2012, dated 2017):

Each compound was assayed against HIV-1 RT wild-type enzyme (Human immunodeficiency virus type 1 group M subtype B (isolate HXB2) (HIV-1), UniProt P04585) (assay: HIV-1 reverse transcriptase inhibitory activity (RT polymerase assay)). Conditions: HIV-1 RT wild-type enzyme 83 pM; RNA-dependent DNA polymerase activity; read-out: IC50.
Format: biochemical
Protocol: Determination of HIV-1 Reverse Transcriptase Inhibitory Activity
The heterodimeric nucleic acid substrate used in the HIV-1 RT polymerase reactions was generated by annealing the DNA primer, biotinylated pD500 (Sigma Aldrich, USA, 5′-biotin-ttg aaa tga ctg cgg tac ggc-3′), SEQ ID NO. 1 to the nucleotide RNA template t500 (derived from hepatitis C virus [HCV] sequence, IBA, Germany, 5′-[…]-3′), SEQ ID NO 2). […] The mixture was then preincubated on an orbital shaker for 30 min at room temperature in microtiter plates (Costar 3365, Corning, USA). A polymerization reaction was initiated by the addition of RNA template/pD500 DNA primer hybrid (16.6 nM final of RNA/DNA hybrid) and dNTPs (2 μM dATP, dGTP, dCTP and 66.6 nM Ru-dUTP (Meso Scale Discovery, USA)). Plate was sealed and incubated for 5-10 min at room temperature on an orbital shaker. Plate was then incubated for 90 min at 37° C. and reactions quenched with 60 μl quenching buffer (50 mM EDTA, 0.7% BSA, 0.7% Tween-20, 0.017% sodium azide in PBS). The resulting solution was incubated at room temperature for an additional 5 min and then 50 μL was transferred to pre-blocked Avidin plates (L15AA, Meso Scale Discovery). Each well of Avidin plate was blocked for 1 h at room temperature with 100 μL 5% BSA in PBS. Blocking solution was removed by tapping vigorously on filter paper to remove all excess liquid. Reaction on pre-blocked avidin plate proceeded for 60 min at room temperature and then contents removed by tapping vigorously on filter paper to remove all excess liquid. After washing plate 3 times with 150 μL 1×PBS and blotting dry between cycles, 150 μL 1× Read Buffer T (4× Read Buffer T, Meso Scale Discovery) was added and incubated for 5 min at room temperature before counting on a Sector Imager […] (Meso Scale Discovery). Titration curves and IC50 values were calculated using a four parameter logisitc fit according to standard procedures. Briefly, % Inhibition=100×((sample raw value)−(mean value of the low control or 0% inhibition))/((mean value of wells representing 100% inhbition)−(mean value of 0% inhbition)). In this assay, low control wells contain DMSO (0% inhbition) and 100% inhibition wells contain 1 μM efavirenz.

Compound | IC50
N#Cc1cc(Cl)cc(Oc2c(C(F)(F)F)ncn(Cc3cc(-c4cccc(Cl)c4)c(=O)[nH]n3)c2=O)c1 [Example 36, 3-chloro-5-((1-((5-(3-chlorophenyl)-6-oxo-1,6-dihydropyridazin-3-yl)methyl)-6-oxo-4-(trifluoromethyl)-1,6-dihydropyrimidin-5-yl)oxy)benzonitrile] | 4 nM
Cc1cc(-c2cc(Cn3cnc(C(F)(F)F)c(Oc4cc(Cl)cc(C#N)c4)c3=O)n[nH]c2=O)ccc1F [Example 37, 3-chloro-5-((1-((5-(4-fluoro-3-methylphenyl)-6-oxo-1,6-dihydropyridazin-3-yl)methyl)-6-oxo-4-(trifluoromethyl)-1,6-dihydropyrimidin-5-yl)oxy)benzonitrile] | 5 nM
Cc1cccc(-c2cc(Cn3cnc(C(F)(F)F)c(Oc4cc(Cl)cc(C#N)c4)c3=O)n[nH]c2=O)c1F [Example 38, 3-chloro-5-((1-((5-(2-fluoro-3-methylphenyl)-6-oxo-1,6-dihydropyridazin-3-yl)methyl)-6-oxo-4-(trifluoromethyl)-1,6-dihydropyrimidin-5-yl)oxy)benzonitrile] | 110 nM
Cc1ccc(F)c(-c2cc(Cn3cnc(C(F)(F)F)c(Oc4cc(Cl)cc(C#N)c4)c3=O)n[nH]c2=O)c1 [Example 39, 3-chloro-5-((1-((5-(2-fluoro-5-methylphenyl)-6-oxo-1,6-dihydropyridazin-3-yl)methyl)-6-oxo-4-(trifluoromethyl)-1,6-dihydropyrimidin-5-yl)oxy)benzonitrile] | 10 nM
N#Cc1cc(Cl)cc(Oc2c(C(F)(F)F)ncn(Cc3cc(-c4ccc(F)cc4Cl)c(=O)[nH]n3)c2=O)c1 [Example 40, 3-chloro-5-((1-((5-(2-chloro-4-fluorophenyl)-6-oxo-1,6-dihydropyridazin-3-yl)methyl)-6-oxo-4-(trifluoromethyl)-1,6-dihydropyrimidin-5-yl)oxy)benzonitrile] | 70 nM
N#Cc1cc(Cl)cc(Oc2c(C(F)(F)F)ncn(Cc3cc(-c4cccc(F)c4Cl)c(=O)[nH]n3)c2=O)c1 [Example 41, 3-chloro-5-((1-((5-(2-chloro-3-fluorophenyl)-6-oxo-1,6-dihydropyridazin-3-yl)methyl)-6-oxo-4-(trifluoromethyl)-1,6-dihydropyrimidin-5-yl)oxy)benzonitrile] | 59 nM
Cc1ccc(-c2cc(Cn3cnc(C(F)(F)F)c(Oc4cc(Cl)cc(C#N)c4)c3=O)n[nH]c2=O)c(F)c1 [Example 42, 3-chloro-5-((1-((5-(2-fluoro-4-methylphenyl)-6-oxo-1,6-dihydropyridazin-3-yl)methyl)-6-oxo-4-(trifluoromethyl)-1,6-dihydropyrimidin-5-yl)oxy)benzonitrile] | 7 nM
N#Cc1cc(Cl)cc(Oc2c(C(F)(F)F)ncn(Cc3cc(-c4cccc(Cl)c4F)c(=O)[nH]n3)c2=O)c1 [Example 43, 3-chloro-5-((1-((5-(3-chloro-2-fluorophenyl)-6-oxo-1,6-dihydropyridazin-3-yl)methyl)-6-oxo-4-(trifluoromethyl)-1,6-dihydropyrimidin-5-yl)oxy)benzonitrile] | 9 nM
COc1cccc(-c2cc(Cn3cnc(C(F)(F)F)c(Oc4cc(Cl)cc(C#N)c4)c3=O)n[nH]c2=O)c1F [Example 44, 3-chloro-5-((1-((5-(2-fluoro-3-methoxyphenyl)-6-oxo-1,6-dihydropyridazin-3-yl)methyl)-6-oxo-4-(trifluoromethyl)-1,6-dihydropyrimidin-5-yl)oxy)benzonitrile] | 4 nM
COc1ccc(-c2cc(Cn3cnc(C(F)(F)F)c(Oc4cc(Cl)cc(C#N)c4)c3=O)n[nH]c2=O)c(F)c1 [Example 45, 3-chloro-5-((1-((5-(2-fluoro-4-methoxyphenyl)-6-oxo-1,6-dihydropyridazin-3-yl)methyl)-6-oxo-4-(trifluoromethyl)-1,6-dihydropyrimidin-5-yl)oxy)benzonitrile] | 6 nM
N#Cc1cc(Cl)cc(Oc2c(C(F)(F)F)ncn(Cc3cc(-c4ccc(Cl)c(F)c4)c(=O)[nH]n3)c2=O)c1 [Example 46, 3-chloro-5-((1-((5-(4-chloro-3-fluorophenyl)-6-oxo-1,6-dihydropyridazin-3-yl)methyl)-6-oxo-4-(trifluoromethyl)-1,6-dihydropyrimidin-5-yl)oxy)benzonitrile] | 5 nM
N#Cc1cc(Cl)cc(Oc2c(C(F)(F)F)ncn(Cc3cc(-c4cc(Cl)ccc4F)c(=O)[nH]n3)c2=O)c1 [Example 47, 3-chloro-5-((1-((5-(5-chloro-2-fluorophenyl)-6-oxo-1,6-dihydropyridazin-3-yl)methyl)-6-oxo-4-(trifluoromethyl)-1,6-dihydropyrimidin-5-yl)oxy)benzonitrile] | 11 nM
N#Cc1cc(Cl)cc(Oc2c(C(F)(F)F)ncn(Cc3cc(-c4cc(F)ccc4F)c(=O)[nH]n3)c2=O)c1 [Example 48, 3-chloro-5-((1-((5-(2,5-difluorophenyl)-6-oxo-1,6-dihydropyridazin-3-yl)methyl)-6-oxo-4-(trifluoromethyl)-1,6-dihydropyrimidin-5-yl)oxy)benzonitrile] | 9 nM
Cc1ccc(F)cc1-c1cc(Cn2cnc(C(F)(F)F)c(Oc3cc(Cl)cc(C#N)c3)c2=O)n[nH]c1=O [Example 50] | 165 nM
COc1cccc(F)c1-c1cc(Cn2cnc(C(F)(F)F)c(Oc3cc(Cl)cc(C#N)c3)c2=O)n[nH]c1=O [Example 51, 3-chloro-5-((1-((5-(2-fluoro-6-methoxyphenyl)-6-oxo-1,6-dihydropyridazin-3-yl)methyl)-6-oxo-4-(trifluoromethyl)-1,6-dihydropyrimidin-5-yl)oxy)benzonitrile] | 358 nM
COc1ccc(-c2cc(Cn3cnc(C(F)(F)F)c(Oc4cc(Cl)cc(C#N)c4)c3=O)n[nH]c2=O)cc1F [Example 52, 3-chloro-5-((1-((5-(3-fluoro-4-methoxyphenyl)-6-oxo-1,6-dihydropyridazin-3-yl)methyl)-6-oxo-4-(trifluoromethyl)-1,6-dihydropyrimidin-5-yl)oxy)benzonitrile] | 4 nM
CC(C)(C)c1ccc(-c2cc(Cn3cnc(C(F)(F)F)c(Oc4cc(Cl)cc(C#N)c4)c3=O)n[nH]c2=O)cc1 [Example 53, 3-((1-((5-(4-(tert-butyl)phenyl)-6-oxo-1,6-dihydropyridazin-3-yl)methyl)-6-oxo-4-(trifluoromethyl)-1,6-dihydropyrimidin-5-yl)oxy)-5-chlorobenzonitrile] | 70 nM
N#Cc1cc(Cl)cc(Oc2c(C(F)(F)F)ncn(Cc3cc(-c4cccc(C#N)c4)c(=O)[nH]n3)c2=O)c1 [Example 54, 3-chloro-5-((1-((5-(3-cyanophenyl)-6-oxo-1,6-dihydropyridazin-3-yl)methyl)-6-oxo-4-(trifluoromethyl)-1,6-dihydropyrimidin-5-yl)oxy)benzonitrile] | 8 nM
N#Cc1cc(Cl)cc(Oc2c(C(F)(F)F)ncn(Cc3cc(-c4cc(F)c(F)c(F)c4)c(=O)[nH]n3)c2=O)c1 [Example 55, 3-chloro-5-((6-oxo-1-((6-oxo-5-(3,4,5-trifluorophenyl)-1,6-dihydropyridazin-3-yl)methyl)-4-(trifluoromethyl)-1,6-dihydropyrimidin-5-yl)oxy)benzonitrile] | 11 nM
Cc1cc(F)ccc1-c1cc(Cn2cnc(C(F)(F)F)c(Oc3cc(Cl)cc(C#N)c3)c2=O)n[nH]c1=O [Example 56, 3-chloro-5-((1-((5-(4-fluoro-2-methylphenyl)-6-oxo-1,6-dihydropyridazin-3-yl)methyl)-6-oxo-4-(trifluoromethyl)-1,6-dihydropyrimidin-5-yl)oxy)benzonitrile] | 76 nM
